Reference: patent US20080207502A1, “Anti-Angiogenic Peptides and Methods of Use Thereof” (SOPHERION THERAPEUTICS, INC., priority 2004, published 2008)

Key:
[1] = system: Bovine Retinal Endothelial Cells (BRE); assay: VEGF-mediated survival/proliferation of BRE cells (WST1); assay type: cell-based
Method: (§1) The anti-angiogenic activities of the peptides were tested by measuring the level of inhibition of VEGF and bFGF mediated survival/proliferation of Bovine Retinal Endothelial Cells (BRE), Human Dermal Microvasculature Endothelial Cells, and Human Umbilical Vein Endothelial Cells, all of which are standard cell lines used to test anti-angiogenic compounds.
Bovine retinal endothelial (BRE) cells were maintained in Cambrex EG2 media. For non-adherent cell assays, on day one cells were starved for either 6 hours or overnight, then trypsinized and plated in 96-well plates in 100 μl of Optimem plus 1% fetal bovine serum (FBS). One hundred μl of Optimem plus 1% FBS was added to the wells containing, where appropriate, VEGF to a final concentration of 25 ng/ml, and the various peptides to final concentrations as described. For adherent cells, cells were plated in 96-well plates in complete media, allowed to adhere overnight, washed in starvation media (Optimem plus 1% FBS) and then starved during the day. At the end of the day, 100 μl of Optimem plus 1% FBS was added to the wells containing, where appropriate, VEGF to a final concentration of 25 ng/ml and the various peptides to final concentrations as described.
(§2) In all cases, after 72 hours incubation, the amount of live cells in each well was measured with the WST1 assay (Roche).

[2] = Biological activity of D-amino acid versions of ST100,038 (assay not specified); details: ST100,045 tested against ST100,059 and a control
Method: D-amino acid peptides can be made by generating a D-amino acid peptide with the same sequence as a L-amino acid peptide or by preparing a retro inverso form of a peptide. ST100,045 (SEQ ID NO.: 31) has the same sequence as ST100,038 (SEQ ID NO.: 29) was tested against ST100,059 (SEQ ID NO.: 30) which is the retro inverso version of ST100,038 and a control.

[3] = system: B16 melanoma tumor; assay: Subcutaneous B16 melanoma tumor model in vivo; design: species or system mouse; details: vs untreated controls
Method: Because of the importance of the angiogenic process for tumorigenesis, miniproteins as described herein, were hypothesized to show good anti-tumor activity. The peptides of the invention were tested in an in vivo model of anti-tumor activity. This model compares the growth of sub cutaneous B16 melanoma tumor in vivo either untreated or treated with various amount of miniproteins described in this application. This model is widely accepted in the art as a model to test the anti-tumor activity of compounds that inhibit tumor growth because they have anti-angiogenic activity.
Male C57BL/6 mice were obtained with a mean body weight of 20±2 g. Mouse B16-F1 melanoma cells were implanted subcutaneously (5×10^5 cell per animal). Peptides (formulated in water) were administered ip daily at the amount indicated starting the day after cells injection. In general, tumors became palpable around 9 days after injection of cells. Tumor were then measured every 2 days.

[4] = system: binding of radiolabeled VEGF to endothelial cells; assay: Inhibition of binding of radiolabeled VEGF to endothelial cells; details: concentration of 30 μM; for inhibition of VEGF binding: FIG. 7; for VEGF binding inhibition: legend of FIG. 7
From the text: The activity of the peptides SEQ ID NO.: 1 and SEQ ID NO.: 2 in blocking the binding of radiolabeled VEGF to endothelial cells is shown in FIG. 7.

[5] = Heparin binding activity by liquid chromatography on Hi Trap Heparin HP column (NaCl elution); details: step gradient 500-1000 mM NaCl in 10 mM NaH2PO4 pH 7
From the text: Liquid chromatography was used to determine the relative levels of heparin binding activity of the individual heparin binding domains and of the anti-angiogenic miniproteins that contains them. In this assay, the strength of the heparin binding activity is proportional to the amount of NaCl that is required to elute the peptide bound to the heparin column. Peptides with low binding activity are eluted with lower NaCl concentration, whereas higher concentrations of NaCl are required for peptides with higher binding activity.
Hi Trap Heparin HP column (1 ml, Amersham Biosciences) was equilibrated with 10 column volumes (CV) of equilibration (EQ) buffer=10 mM NaH2PO4pH 7. All buffers were loaded onto columns via syringes. 500 μl fractions are collected (flow rate=1 ml/minute). 500 μg of peptide (1 mg/ml, resuspended in EQ buffer) was added to each column and the flow through was collected for analysis. The columns were then washed with 3 CV of EQ buffer. Peptides are then eluted with a step gradient of 500, 625, 750, 875 mM NaCl in EQ buffer, 2 CV per each step. A final step of 3 CV of 1000 mM NaCl in EQ buffer was collected in 500 μl fractions. The A210 nm was measured using EQ and elution buffers as blanks.

[6] = system: mouse leukemia L1210 cells; assay: Tumor cell proliferation (WST-1), L1210; assay type: cell-based; details: FIG. 11
Method: Peptides to be tested were prepared at a stock concentration of 10 mM in sterile phosphate buffered saline. Cancer cell lines obtained from the American Type Culture Collection (MG-63, HT1080, A498, BxPC3, 786-0, PC-3, B16F1, B16F10, P388D1, Jurkat, MOLT4, THP-1, U-937, L1210, RPMI 8226, NCI H929, U266B1, K562) were cultured under appropriate conditions as described in the literature. Cell culture media and reagents were obtained from ATCC (Manassas, Va.), Invitrogen (Carlsbad, Calif.) or Mediatech (Herndon, Va.). Exponentially growing cultures were used for cell proliferation assays. Adherent cells were plated at a concentration of 100000 cells per milliter in growth media overnight (18-24 h) and treated the next day in a low serum media (growth media with 1% FBS for MG-63, HT1080, A498, BxPC3, PC-3, B16F1, B16F10. 786-0 cells were treated in media with 5% FBS). Suspension cell lines (P388D1, Jurkat, MOLT4, THP-1, U-937, L1210, RPMI 8226, NCI H929, U266B1, and K562) were diluted to a concentration of 100,000 cells per ml and treated on the same day with peptides. Peptides were diluted in treatment media and cells were treated for 48 or 72 hours depending on the cell line. Each dose was tested in triplicate for each experiment, and experiments were repeated for a minimum of three discrete times. After incubation, the relative number of cells was determined using WST-1 (Roche Applied Science). A 9.5 μl aliquot of WST-1 was added to each well. The plate was immediately read at 440 nm using a Bio-Tek PowerWave XS microplate reader, incubated for 2-3 hours at 37° C. and then read again. Cell proliferation was determined as the percent of the control cell proliferation. The absorbance of each well at time 0 was subtracted from the value of the final reading. Afterwards the blank values were averaged and subtracted from each test and control value. Finally, each test absorbance was divided by the average of the control absorbances and multiplied by 100 to obtain the percent of control. […]

[7] = system: L1210 murine leukemia; assay: L1210 murine leukemia intravenous model in vivo; design: species or system mouse; details: dosed IP, DBA/2 mice, FIG. 15a
Method: Antitumor activity of test peptides, administered intraperitoneally (IP), were evaluated against L1210 murine leukemia cells implanted intravenously (IV) in DBA/2 mice.
Studies generally consisted of randomly-assigned groups of 8 mice per group, which were inoculated IV with 1×10^5 cells per mouse from an in vivo leukemia cell line. In addition to groups tested with test peptides, studies usually included a vehicle-treated control group and a positive control group treated with an agent known to be active in the L1210 leukemia model. Starting one day after tumor inoculation (inoculation day defined as Day 0), mice were treated IP with either vehicle or test peptides in various schedules. Generally this consisted of treatment every other day for approximately 1 week (e.g., Days 1, 3, 5 and 7). A positive agent (e.g., cyclophosphamide) was usually given as a single IP injection on Day 1. All dosing solutions were prepared on each day of treatment. Survival was monitored daily and body weights were measured twice weekly. Anti-tumor activity was assessed by the increase in lifespan of the treated groups in comparison to the vehicle-treated control group. Studies with the L1210 leukemia model were limited to 30 days.

[8] = system: Human Umbilical Vein Endothelial Cells; assay: bFGF-mediated survival/proliferation of human umbilical vein endothelial cells (WST1); assay type: cell-based; details: for potency in blocking bFGF stimulation: compared with ST100,068, FIG. 6; for inhibition of bFGF mediated survival: comparison of several peptides, FIG. 10
Method: as §1
Human umbilical cord endothelial (HUVEC) cells were maintained in Cambrex EGM-2MV media. On day one, cells were starved overnight in 1% FBS in M200 media (Cascade Biologicals). The morning after, the media were replaced with serum-free media (control) or media containing 25 ng/ml of human VEGF165 and the various peptides to final concentrations as described.
as §2

ATSLPPHSSQSP (listed as Homo sapiens) [ST100,038]
Concentrations that completely abolished the VEGF-induced increase in WST-1 value ([1]; VEGF 25 ng/ml, 72 hours, FIG. 4): above 40 μM

ATSLPPHSSQSP (listed as Homo sapiens) [ST100,045]
biologically active [2]: Only the retro inverso form of ST100,038, (ST100,059; SEQ ID NO.: 30) was found to be biologically active

ATSLPPHSSQSPGGGPPAARGRRAARGRR (listed as Homo sapiens) [ST100,062]
inhibition of tumor growth ([3]; 20 mg/kg daily IP, FIG. 12): clearly inhibit tumor growth

PYAGRGDSVVYGLGGGPGAARGRRAARGRR [ST100,033]
inhibition of VEGF binding [4]: ~100%
VEGF binding inhibition [4]: completely abolished VEGF binding

RAAKKRKRAAKKRARAAKKRLGYVVSDGRGDYP (RAAKKRARAAKKRARAAKKRLGYVVSDGRGDYP; listed as Homo sapiens) [ST100,079]
[NaCl] for elution [5]: 1000 mM

RKKAARARKKAARARKKAARRLGYVVSDGRGDYP (listed as Homo sapiens) [ST100,081]
[NaCl] for elution [5]: 1000 mM

RKRAALRARKRAARARKRAARR (RKRAARARKRAARARKRAARR; listed as Homo sapiens) [ST100,083]
[NaCl] for elution [5]: 1100 mM

RLGYVVSDGRGDYP (listed as Homo sapiens) [ST100,077]
blocked cell proliferation or induced cell death [6]: Neither

RLGYVVSDGRGDYPKKKRRGRAARRGRAA [ST100,065]
mice (cured mice) survived longer than 30 days [7]: Sixty to eighty percent
survival [7]: statistically significant increases in survival
[NaCl] for elution [5]: 750 mM

RRGRAAKKKRRGRAAKKK (listed as Homo sapiens) [ST100,082]
[NaCl] for elution [5]: 1000 mM

RRGRAAKKKRRGRAAKKKPSQSSHPPLSTA (listed as Homo sapiens) [ST100,072]
potency in blocking bFGF stimulation [8]: more potent in blocking bFGF stimulation
[NaCl] for elution [5]: 1000 mM

RRGRAAKKKRRGRAAKKKRLGYVVSDGRGDYP [ST100,074]
mice (cured mice) survived longer than 30 days [7]: Sixty to eighty percent
survival [7]: statistically significant increases in survival
inhibition of bFGF mediated survival [8]: the most active in inhibiting bFGF stimulation
[NaCl] for elution [5]: 1000 mM

RRGRAARRGRAAKKK (listed as Homo sapiens) [ST100,078]
blocked cell proliferation or induced cell death [6]: Neither
inhibition of bFGF mediated survival [8]: not as potent

RRGRAARRGRAAKKKPSQSSHPPLSTA (listed as Homo sapiens) [ST100,068]
potency in blocking VEGF stimulation ([1]; compared with ST100,059, FIG. 5): more potent in blocking VEGF stimulation
inhibition of VEGF stimulation ([1]; increasing doses, FIG. 5): inhibited with increasing doses
inhibition of tumor growth ([3]; 20 mg/kg and 40 mg/kg daily IP, FIG. 13): able to inhibit tumor growth

RRGRAARRGRAARRGRAAKKKPSQSSHPPLSTA (listed as Homo sapiens) [ST100,073]
potency in blocking bFGF stimulation [8]: more potent in blocking bFGF stimulation
inhibition of bFGF mediated survival [8]: the most active in inhibiting bFGF stimulation
[NaCl] for elution [5]: 1000 mM
inhibition of tumor growth ([3]; 20 mg/kg daily IP, FIG. 14): able to inhibit tumor growth

YDGRGDSVVYGLKKKAARGRRAARGRR [ST100,032]
inhibition of VEGF binding [4]: ~100%
VEGF binding inhibition [4]: completely abolished VEGF binding
